According to patent EP4806898A1, “HETEROARYL DERIVATIVE COMPOUND AND USE THEREOF” (Voronoi Inc., priority 2023, dated 2025):
Read-outs that look alike come from different tables or passages of the source.

Assays:
[1] = target: T1, recombinant USP1 protein (Homo sapiens, UniProt O94782, DEL125-138/DEL229-408/DEL608-737); assay: Binding affinity to recombinant USP1 protein by differential scanning fluorimetry; conditions: read-out: ΔTm (°C)
T1 sequence (O94782 with tags, fused parts or gaps DEL125-138/DEL229-408/DEL608-737): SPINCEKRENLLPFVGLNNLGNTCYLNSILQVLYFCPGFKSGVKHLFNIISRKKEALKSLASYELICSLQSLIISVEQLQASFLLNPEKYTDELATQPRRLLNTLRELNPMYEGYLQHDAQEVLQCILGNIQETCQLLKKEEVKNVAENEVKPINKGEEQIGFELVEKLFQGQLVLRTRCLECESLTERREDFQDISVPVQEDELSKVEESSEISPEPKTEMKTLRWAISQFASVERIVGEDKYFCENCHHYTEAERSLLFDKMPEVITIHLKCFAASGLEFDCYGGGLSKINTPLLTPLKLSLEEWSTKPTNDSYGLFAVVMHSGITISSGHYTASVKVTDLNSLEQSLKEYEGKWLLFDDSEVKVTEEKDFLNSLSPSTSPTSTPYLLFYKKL
Outline: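 Thermal shift readout: ΔTm is the compound-well melting temperature less the DMSO-well value, measured by real-time PCR. Compounds tested at 100 µM final against 0.03 mg/mL truncated USP1 (Δ1-66, Δ125-138, Δ229-408, Δ608-737) in pH 8.0 Tris buffer containing 150 mM NaCl, 2% glycerol, 1 mM DTT.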

[2] = system: UWB1.289 cells; assay: Cell proliferation inhibitory activity in BRCA1/2-mutant or HRD-positive cells (Cell Titer-Glo); type: cell-based; conditions: read-out: GI50 UWB1.289 BRCA1 mut
Outline: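 GI50 from CellTiter-Glo luminescence after 144 h compound exposure at 37 °C. Cells seeded at 1,000 per well in MEBM/RPMI1640 mix 16–24 h beforehand; […] from 10 µM down to 1.5 nM final (3-fold steps).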

[3] = compound 100 µM, 0.03 mg/mL USP1 (Δ1-66, Δ125-138, Δ229-408, Δ608-737), Tm with compound minus Tm with DMSO
[4] = UWB1289, UWB1.289 cells, 144 hours after compound treatment, Cell Titer-Glo, 1.5 nM to 10 µM

Row | ΔTm at 100 µM [1, 3] [°C] | SMILES | GI50 [2, 4] [nM] | ΔTm at 100 µM [1] [°C] | GI50 ([2]; UWB1289, 144 h) [nM]
1 | > 5 | CNC(=O)c1cc2cnc(-c3c(OC)ncnc3C3CC3)nc2n1Cc1ccc(-c2nc(C(F)(F)F)c3n2CCCC3)cc1 [Example 200, 2-(4-cyclopropyl-6-methoxypyrimidin-5-yl)-N-methyl-7-(4-(1-(trifluoromethyl) -5,6,7,8-tetrahydroimidazo[1,5-a]pyridin-3-yl)benzyl)-7H-pyrrolo[2,3-d]pyrimidine-6-carboxamide] | < 100 | – | –
2 | > 5 | COc1ncnc(C2CC2)c1-c1ncc2cc(C(=O)N3CC[C@@H](O)C3)n(Cc3ccc(-c4nc(C(F)(F)F)cn4C(C)C)cc3)c2n1 [Example 105, (R) - (2-(4-cyclopropyl-6-methoxypyrimid in-5-yl)-7-(4-(1-isopropyl-4-(trifluoromethyl)-1H-imidazol-2-yl)benzyl)-7H-pyrrolo[2,3-d]pyrimidin-6-yl) (3-hydroxypyrrolidin-1-yl)methanone] | 100 to 500 | – | –
3 | > 5 | COc1ncnc(C2CC2)c1-c1ncc2cc(C(=O)NCCN3CCN(C)CC3)n(Cc3ccc(-c4nc(C(F)(F)F)cn4C(C)C)cc3)c2n1 [Example 102, 2-(4-cyclopropyl-6-methoxypyrimidin-5-yl)-7-(4-(1-isopropyl-4-(trifluoromethyl)-1H-imidazol-2-yl)benzyl)-N-(2-(4-methylpiperazin-1-yl)ethyl)-7H-pyrrolo[2,3-d]pyrimidine-6-carboxamide] | < 100 | – | –
4 | > 5 | COc1ncnc(C2CC2)c1-c1ncc2cc(C(=O)NC3CCN(C)CC3)n(Cc3ccc(-c4nc(C(F)(F)F)cn4C)cc3)c2n1 [Example 153, 2-(4-cyclopropyl-6-methoxypyrimidin-5-yl)-7-(4-(1-methyl-4-(trifluoromethyl)-1H-imidazol-2-yl)benzyl)-N-(1-methylpiperidin-4-yl)-7H-pyrrolo[2,3-d]pyrimidine-6-carboxamide] | < 100 | – | –
5 | > 5 | COc1ncnc(C2CC2)c1-c1ncc2cc(C(=O)NCC3CCN(C)CC3)n(Cc3ccc(-c4nc(C(F)(F)F)cn4C(C)C)cc3)c2n1 [Example 87, 2-(4-cyclopropyl-6-methoxypyrimidin-5-yl)-7-(4-(1-isopropyl-4-(trifluoromethyl)-1H-imidazol-2-yl)benzyl)-N-((1-methylpiperidin-4-yl)methyl)-7H-pyrrolo[2,3-d]pyrimidine-6-carboxamide] | 100 to 500 | – | –
6 | > 5 | CNC(=O)c1cc2cnc(-c3c(OC)ncnc3C3CC3)nc2n1Cc1ccc(-c2nc(C(F)(F)F)c(OC)n2C)cc1 [Example 214, 2-(4-cyclopropyl-6-methoxypyrimidin-5-yl)-7-(4-(5-methoxy-1-methyl-4-(trifluoromethyl)-1H-imidazol-2-yl)benzyl)-N-methyl-7H-pyrrolo[2,3-d]pyrimidine-6-carboxamide] | < 100 | – | –
7 | > 5 | CCN1CCN(C(=O)c2cc3cnc(-c4c(OC)ncnc4C4CC4)nc3n2Cc2ccc(-c3nc(C(F)(F)F)cn3C(C)C)cc2)CC1 [Example 57, (2-(4-cyclopropyl-6-methoxypyrimid in-5-yl)-7-(4-(1-isopropyl-4-(trifluoromethyl)-1H-imidazol-2-yl)benzyl)-7H-pyrrolo[2,3-d]pyrimidin-6-yl) (4-ethylpiperazin-1-yl)methanone] | < 100 | – | –
8 | > 5 | COc1ncnc(C2CC2)c1-c1ncc2cc(C(=O)NCc3ccccc3)n(Cc3ccc(-c4nc(C(F)(F)F)cn4C(C)C)cc3)c2n1 [Example 49, N-benzyl-2-(4-cyclopropyl-6-methoxypyrimidin-5-yl)-7-(4-(1-isopropyl-4-(trifluoromethyl)-1H-imidazol-2-yl)benzyl)-7H-pyrrolo[2,3-d]pyrimidine-6-carboxamide] | 100 to 500 | – | –
9 | > 5 | COc1ncnc(C2CC2)c1-c1ncc2cc(C(=O)NCC3(C)CC(F)(F)C3)n(Cc3ccc(-c4nc(C(F)(F)F)cn4C(C)C)cc3)c2n1 [Example 20, 2-(4-cyclopropyl-6-methoxypyrimidin-5-yl)-N-((3,3-difluoro-1-methylcyclobutyl)methyl)-7-(4-(1-isopropyl-4-(trifluoromethyl)-1H-imidazol-2-yl)benzyl)-7H-pyrrolo[2,3-d]pyrimidine-6-carboxamide] | 100 to 500 | – | –
10 | > 5 | COc1ncnc(C2CC2)c1-c1ncc2cc(C(=O)N[C@@H]3CCC[C@H]3N(C)C)n(Cc3ccc(-c4nc(C(F)(F)F)cn4C(C)C)cc3)c2n1 [Example 115, 2-(4-cyclopropyl-6-methoxypyrimidin-5-yl)-N-((1R,2R)-2-(dimethylamino)cyclopentyl)-7-(4-(1-isopropyl-4-(trifluoromethyl)-1H-imidazol-2-yl)benzyl)-7H-pyrrolo[2,3-d]pyrimidine-6-carboxamide] | < 100 | – | –
11 | > 5 | CNC(=O)c1cc2cnc(-c3cccnc3OC)nc2n1Cc1ccc(-c2nc(C(F)(F)F)cn2C(C)C)cc1 [Example 147, 7-(4-(1-isopropyl-4-(trifluoromethyl)-1H-imidazol-2-yl)benzyl)-2-(2-methoxypyridin-3-yl)-N-methyl-7H-pyrrolo[2,3-d]pyrimidine-6-carboxamide] | < 100 | – | –
12 | > 5 | COc1ncnc(C2CC2)c1-c1ncc2cc(C(=O)NC[C@@H](C)O)n(Cc3ccc(-c4nc(C(F)(F)F)cn4C)cc3)c2n1 [Example 163, (R)-2-(4-cyclopropyl-6-methoxypyrimidin-5-yl)-N-(2-hydroxypropyl) -7-(4-(1-methyl-4-(trifluoromethyl)-1H-imidazol-2-yl)benzyl)-7H-pyrrolo[2,3-d]pyrimidine-6-carboxamide] | < 100 | – | –
13 | > 5 | COc1ncnc(C2CC2)c1-c1ncc2cc(C(=O)N[C@H]3CCN(C)CC3(F)F)n(Cc3ccc(-c4nc(C(F)(F)F)cn4C)cc3)c2n1 [Example 202, (S)-2-(4-cyclopropyl-6-methoxypyrimidin-5-yl)-N-(3,3-difluoro-1-methylpiperidin-4-yl)-7-(4-(1-methyl-4-(trifluoromethyl)-1H-imidazol-2-yl)benzyl)-7H-pyrrolo[2,3-d]pyrimidine-6-carboxamide] | < 100 | – | –
14 | > 5 | COc1ncnc(C2CC2)c1-c1ncc2cc(C(=O)NC[C@@H]3CCCN3C)n(Cc3ccc(-c4nc(C(F)(F)F)cn4C(C)C)cc3)c2n1 [Example 108, (S)-2-(4-cyclopropyl-6-methoxypyrimidin-5-yl)-7-(4-(1-isopropyl-4-(trifluoromethyl)-1H-imidazol-2-yl)benzyl)-N-((1-methylpyrrolidin-2-yl)methyl)-7H-pyrrolo[2,3-d]pyrimidine-6-carboxamide] | < 100 | – | –
15 | > 5 | CNC(=O)c1cc2cnc(-c3cccnc3C(C)C)nc2n1Cc1ccc(-c2nc(C(F)(F)F)cn2C(C)C)cc1 [Example 134, 7-(4-(1-isopropyl-4-(trifluoromethyl)-1H-imidazol-2-yl)benzyl)-2-(2-isopropylpyridin-3-yl)-N-methyl-7H-pyrrolo[2,3-d]pyrimidine-6-carboxamide] | < 100 | – | –
16 | – | COc1ncnc(C2CC2)c1-c1ncc2cc(C(=O)NCCF)n(Cc3ccc(-c4nc(C(F)(F)F)cn4C(C)C)cc3)c2n1 [Example 21, 2-(4-cyclopropyl-6-methoxypyrimidin-5-yl)-N-(2-fluoroethyl)-7-(4-(1-isopropyl-4-(trifluoromethyl)-1H-imidazol-2-yl)benzyl)-7H-pyrrolo[2,3-d]pyrimidine-6-carboxamide] | – | > 5 | < 100
17 | > 5 | CNC(=O)c1cc2cnc(-c3c(OC)ncnc3C3CC3)nc2n1Cc1ccc(-n2nc(C(C)(C)O)cc2C)cc1 [Example 188, 2-(4-cyclopropyl-6-methoxypyrimidin-5-yl)-7-(4-(3-(2-hydroxypropan-2-yl)-5-methyl-1H-pyrazol-1-yl)benzyl)-N-methyl-7H-pyrrolo[2,3-d]pyrimidine-6-carboxamide] | 100 to 500 | – | –
18 | > 5 | CNC1CN(C(=O)c2cc3cnc(-c4c(OC)ncnc4C4CC4)nc3n2Cc2ccc(-c3nc(C(F)(F)F)cn3C(C)C)cc2)C1 [Example 144, (2-(4-cyclopropyl-6-methoxypyrimid in-5-yl)-7-(4-(1-isopropyl-4-(trifluoromethyl)-1H-imidazol-2-yl)benzyl) -7H-pyrrolo[2,3-d]pyrimidin-6-yl) (3-(methylamino)azetidin-1-yl)methanone] | < 100 | – | –
19 | > 5 | COCCNC(=O)c1cc2cnc(-c3c(OC)ncnc3C3CC3)nc2n1Cc1ccc(-c2nc(C(F)(F)F)cn2C(C)C)cc1 [Example 106, 2-(4-cyclopropyl-6-methoxypyrimidin-5-yl)-7-(4-(1-isopropyl-4-(trifluoromethyl)-1H-imidazol-2-yl)benzyl)-N-(2-methoxyethyl)-7H-pyrrolo[2,3-d]pyrimidine-6-carboxamide] | < 100 | – | –
